Data from patent US8993752B2, “Neprilysin inhibitors” (Theravance Biopharma R&D IP, LLC, priority 2011, dated 2015).

Each molecule was assayed against T1, human NEP (Homo sapiens, UniProt P08473) (assay: In vitro enzyme inhibition assay at human NEP (fluorogenic peptide substrate)). Settings: recombinant human NEP; substrate Mca-D-Arg-Arg-Leu-Dap-(Dnp)-OH 10 μM; 37° C.; values given as ranges; read-out: pKi values at human NEP (converted).
T1 construct: purchased R&D Systems, Minneapolis, Minn; 1182-ZN
T1 sequence (P08473 whole entry): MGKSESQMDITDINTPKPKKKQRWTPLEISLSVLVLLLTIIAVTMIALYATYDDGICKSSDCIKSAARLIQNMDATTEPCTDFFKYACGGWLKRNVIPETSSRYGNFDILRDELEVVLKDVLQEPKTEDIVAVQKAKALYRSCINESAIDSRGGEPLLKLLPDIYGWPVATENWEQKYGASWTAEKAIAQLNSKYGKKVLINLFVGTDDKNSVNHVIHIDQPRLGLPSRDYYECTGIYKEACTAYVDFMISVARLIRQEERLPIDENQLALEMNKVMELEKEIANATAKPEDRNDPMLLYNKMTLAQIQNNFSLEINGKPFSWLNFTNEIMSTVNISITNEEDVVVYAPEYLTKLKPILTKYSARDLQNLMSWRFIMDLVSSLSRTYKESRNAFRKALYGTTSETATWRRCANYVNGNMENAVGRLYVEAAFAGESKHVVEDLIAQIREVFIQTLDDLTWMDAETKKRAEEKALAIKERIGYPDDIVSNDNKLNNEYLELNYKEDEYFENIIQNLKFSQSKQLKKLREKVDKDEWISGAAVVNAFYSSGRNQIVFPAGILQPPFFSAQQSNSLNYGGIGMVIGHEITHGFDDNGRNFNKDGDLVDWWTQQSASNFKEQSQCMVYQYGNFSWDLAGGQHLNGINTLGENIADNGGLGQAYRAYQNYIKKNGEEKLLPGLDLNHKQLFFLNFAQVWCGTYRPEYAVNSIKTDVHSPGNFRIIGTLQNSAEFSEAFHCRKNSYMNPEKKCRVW
Type: biochemical
Protocol: The inhibitory activities of compounds at human and rat neprilysin (EC 3.4.24.11; NEP) and human angiotensin converting enzyme (ACE) were determined using in vitro assays as described below.
Recombinant human NEP and recombinant human ACE were obtained commercially (R&D Systems, Minneapolis, Minn., catalog numbers 1182-ZN and 929-ZN, respectively). The fluorogenic peptide substrate Mca-D-Arg-Arg-Leu-Dap-(Dnp)-OH (Medeiros et al. (1997) Braz. J. Med. Biol. Res. 30:1157-62; Anaspec, San Jose, Calif.) and Abz-Phe-Arg-Lys(Dnp)-Pro-OH (Araujo et al. (2000) Biochemistry 39:8519-8525; Bachem, Torrance, Calif.) were used in the NEP and ACE assays respectively.
The assays were performed in 384-well white opaque plates at 37° C. using the fluorogenic peptide substrates at a concentration of 10 μM in Assay Buffer (NEP: 50 mM HEPES, pH 7.5, 100 mM NaCl, 0.01% polyethylene glycol sorbitan monolaurate (Tween-20), 10 μM ZnSO4; ACE: 50 mM HEPES, pH 7.5, 100 mM NaCl, 0.01% Tween-20, 1 μM ZnSO4).
Test compounds were assayed over the range of concentrations from 10 μM to 20 pM. Test compounds were added to the enzymes and incubated for 30 minute at 37° C. prior to initiating the reaction by the addition of substrate. Reactions were terminated after 20 minutes of incubation at 37° C. by the addition of glacial acetic acid to a final concentration of 3.6% (v/v).
Plates were read on a fluorometer with excitation and emission wavelengths set to 320 nm and 405 nm, respectively Inhibition constants were obtained by nonlinear regression of the data using the equation (GraphPad Software, Inc., San Diego, Calif.): v=v0/[1+(I/K′)] where v is the reaction rate, v0 is the uninhibited reaction rate, I is the inhibitor concentration and K′ is the apparent inhibition constant.
Compounds of the invention were tested in this assay and found to have pKi values at human NEP as follows.

`O=C(N[C@H](Cc1ccccc1Cl)[C@@H](O)C(=O)O)c1cc(C(=O)O)n(Cc2ccc(Cl)cc2)n1` [Example 2-1, 5-[(1R,2R)-2-Carboxy-1-(2-chloro-benzyl)-2-hydroxy-ethylcarbamoyl]-2-(4-chloro-benzyl)-2H-pyrazole-3-carboxylic acid] and `O=C(N[C@H](Cc1ccccc1Cl)[C@@H](O)C(=O)O)c1cc(C(=O)O)n(Cc2ccc(F)cc2)n1` [Example 2-20, 5-[(1R,2R)-2-Carboxy-1-(2-chloro-benzyl)-2-hydroxy-ethylcarbamoyl]-2-(4-fluoro-benzyl)-2H-pyrazole-3-carboxylic acid] fall in the same range of Ki: 1.26 to 10 nM for the first, 1.26 to 10 nM for the second.

First: O=C(N[C@H](Cc1ccccc1Cl)[C@@H](O)C(=O)O)c1cc(C(=O)O)n(Cc2c(F)cc(Cl)cc2F)n1 [Example 2-2, 5-[(1R,2R)-2-Carboxy-1-(2-chloro-benzyl)-2-hydroxy-ethylcarbamoyl]-2-(4-chloro-2,6-difluoro-benzyl)-2H-pyrazole-3-carboxylic acid]
Second: COc1cc(F)c(Cn2nc(C(=O)N[C@H](Cc3ccccc3Cl)[C@@H](O)C(=O)O)cc2C(=O)O)c(F)c1 [Example 2-32, 5-[(1R,2R)-2-Carboxy-1-(2-chloro-benzyl)-2-hydroxy-ethylcarbamoyl]-2-(2,6-difluoro-4-methoxy-benzyl)-2H-pyrazole-3-carboxylic acid]
The Ki of the first is higher: 1.26 to 10 nM for the first, ≤ 1 nM for the second.

`O=C(N[C@H](Cc1ccccc1Cl)[C@@H](O)C(=O)O)c1cc(C(=O)O)n(Cc2ccc(Cl)c(SC(F)(F)F)c2)n1` [Example 2-9, 5-[(1R,2R)-2-Carboxy-1-(2-chloro-benzyl)-2-hydroxy-ethylcarbamoyl]-2-(4-chloro-3-trifluoromethylsulfanyl-benzyl)-2H-pyrazole-3-carboxylic acid] and `O=C(N[C@H](Cc1ccccc1Cl)[C@@H](O)C(=O)O)c1cc(C(=O)O)n(Cc2ccc(Cl)c(C(F)(F)F)c2)n1` [Example 2-18, 5-[(1R,2R)-2-Carboxy-1-(2-chloro-benzyl)-2-hydroxy-ethylcarbamoyl]-2-(4-chloro-3-trifluoromethyl-benzyl)-2H-pyrazole-3-carboxylic acid] fall in the same range of Ki: 12.6 to 100 nM for the first, 12.6 to 100 nM for the second.

`O=C(N[C@H](Cc1ccccc1Cl)[C@@H](O)C(=O)O)c1cc(C(=O)O)n(Cc2cccc(Cl)c2)n1` [Example 2-10, 5-[(1R,2R)-2-Carboxy-1-(2-chloro-benzyl)-2-hydroxy-ethylcarbamoyl]-2-(3-chloro-benzyl)-2H-pyrazole-3-carboxylic acid] and `COc1cccc(Cn2nc(C(=O)N[C@H](Cc3ccccc3Cl)[C@@H](O)C(=O)O)cc2C(=O)O)c1` [Example 2-11, 5-[(1R,2R)-2-Carboxy-1-(2-chloro-benzyl)-2-hydroxy-ethylcarbamoyl]-2-(3-methoxy-benzyl)-2H-pyrazole-3-carboxylic acid] fall in the same range of Ki: 1.26 to 10 nM for the first, 1.26 to 10 nM for the second.

First: O=C(N[C@H](Cc1ccccc1Cl)[C@@H](O)C(=O)O)c1cc(C(=O)O)n(Cc2ccc(Cl)cc2C(F)(F)F)n1 [Example 2-12, 5-[(1R,2R)-2-Carboxy-1-(2-chloro-benzyl)-2-hydroxy-ethylcarbamoyl]-2-(4-chloro-2-trifluoromethyl-benzyl)-2H-pyrazole-3-carboxylic acid]
Second: O=C(N[C@H](Cc1ccccc1Cl)[C@@H](O)C(=O)O)c1cc(C(=O)O)n(Cc2cc(F)ccc2Cl)n1 [Example 2-15, 5-[(1R,2R)-2-Carboxy-1-(2-chloro-benzyl)-2-hydroxy-ethylcarbamoyl]-2-(2-chloro-5-fluoro-benzyl)-2H-pyrazole-3-carboxylic acid]
The Ki of the first is higher: 12.6 to 100 nM for the first, 1.26 to 10 nM for the second.

First: O=C(N[C@H](Cc1ccccc1Cl)[C@@H](O)C(=O)O)c1cc(C(=O)O)n(Cc2ccc(Cl)c(OC(F)(F)F)c2)n1 [Example 2-13, 5-[(1R,2R)-2-Carboxy-1-(2-chloro-benzyl)-2-hydroxy-ethylcarbamoyl]-2-(4-chloro-3-trifluoromethoxy-benzyl)-2H-pyrazole-3-carboxylic acid]
Second: O=C(N[C@H](Cc1ccccc1Cl)[C@@H](O)C(=O)O)c1cc(C(=O)O)n(Cc2ccc(OC(F)(F)F)c(F)c2)n1 [Example 2-39, 5-[(1R,2R)-2-Carboxy-1-(2-chloro-benzyl)-2-hydroxy-ethylcarbamoyl]-2-(3-fluoro-4-trifluoromethoxy-benzyl)-2H-pyrazole-3-carboxylic acid]
The Ki of the first is higher: 12.6 to 100 nM for the first, ≤ 1 nM for the second.

First: O=C(N[C@H](Cc1ccccc1Cl)[C@@H](O)C(=O)O)c1cc(C(=O)O)n(Cc2c(F)ccc(Cl)c2F)n1 [Example 2-14, 5-[(1R,2R)-2-Carboxy-1-(2-chloro-benzyl)-2-hydroxy-ethylcarbamoyl]-2-(3-chloro-2,6-difluoro-benzyl)-2H-pyrazole-3-carboxylic acid]
Second: COc1ccc(Cn2nc(C(=O)N[C@H](Cc3ccccc3Cl)[C@@H](O)C(=O)O)cc2C(=O)O)c(F)c1F [Example 2-27, 5-[(1R,2R)-2-Carboxy-1-(2-chloro-benzyl)-2-hydroxy-ethylcarbamoyl]-2-(2,3-difluoro-4-methoxy-benzyl)-2H-pyrazole-3-carboxylic acid]
The Ki of the first is higher: 1.26 to 10 nM for the first, ≤ 1 nM for the second.

`O=C(N[C@H](Cc1ccccc1Cl)[C@@H](O)C(=O)O)c1cc(C(=O)O)n(Cc2cc(F)cc(Cl)c2)n1` [Example 2-16, 5-[(1R,2R)-2-Carboxy-1-(2-chloro-benzyl)-2-hydroxy-ethylcarbamoyl]-2-(3-chloro-5-fluoro-benzyl)-2H-pyrazole-3-carboxylic acid] and `COc1c(F)cc(Cn2nc(C(=O)N[C@H](Cc3ccccc3Cl)[C@@H](O)C(=O)O)cc2C(=O)O)cc1Cl` [Example 2-17, 5-[(1R,2R)-2-Carboxy-1-(2-chloro-benzyl)-2-hydroxy-ethylcarbamoyl]-2-(3-chloro-5-fluoro-4-methoxy-benzyl)-2H-pyrazole-3-carboxylic acid] fall in the same range of Ki: 1.26 to 10 nM for the first, 1.26 to 10 nM for the second.

`O=C(N[C@H](Cc1ccccc1Cl)[C@@H](O)C(=O)O)c1cc(C(=O)O)n(Cc2ccccc2Cl)n1` [Example 2-19, 5-[(1R,2R)-2-Carboxy-1-(2-chloro-benzyl)-2-hydroxy-ethylcarbamoyl]-2-(2-chloro-benzyl)-2H-pyrazole-3-carboxylic acid] and `Cc1ccc(Cn2nc(C(=O)N[C@H](Cc3ccccc3Cl)[C@@H](O)C(=O)O)cc2C(=O)O)cc1` [Example 2-40, 5-[(1R,2R)-2-Carboxy-1-(2-chloro-benzyl)-2-hydroxy-ethylcarbamoyl]-2-(4-methyl-benzyl)-2H-pyrazole-3-carboxylic acid] fall in the same range of Ki: 1.26 to 10 nM for the first, 1.26 to 10 nM for the second.

`COc1ccc(Cn2nc(C(=O)N[C@H](Cc3ccccc3Cl)[C@@H](O)C(=O)O)cc2C(=O)O)cc1` [Example 2-21, 5-[(1R,2R)-2-Carboxy-1-(2-chloro-benzyl)-2-hydroxy-ethylcarbamoyl]-2-(4-methoxy-benzyl)-2H-pyrazole-3-carboxylic acid] and `O=C(N[C@H](Cc1ccccc1Cl)[C@@H](O)C(=O)O)c1cc(C(=O)O)n(Cc2ccc(OC(F)F)cc2)n1` [Example 2-26, 5-[(1R,2R)-2-Carboxy-1-(2-chloro-benzyl)-2-hydroxy-ethylcarbamoyl]-2-(4-difluoromethoxy-benzyl)-2H-pyrazole-3-carboxylic acid] cannot be ordered by Ki: ≤ 1 nM for the first, ≤ 1 nM for the second.

First: O=C(N[C@H](Cc1ccccc1Cl)[C@@H](O)C(=O)O)c1cc(C(=O)O)n(Cc2ccc(C(F)(F)F)cc2)n1 [Example 2-25, 5-[(1R,2R)-2-Carboxy-1-(2-chloro-benzyl)-2-hydroxy-ethylcarbamoyl]-2-(4-trifluoromethyl-benzyl)-2H-pyrazole-3-carboxylic acid]
Second: O=C(N[C@H](Cc1ccccc1Cl)[C@@H](O)C(=O)O)c1cc(C(=O)O)n(Cc2ccc(OC(F)(F)F)cc2)n1 [Example 2-33, 5-[(1R,2R)-2-Carboxy-1-(2-chloro-benzyl)-2-hydroxy-ethylcarbamoyl]-2-(4-trifluoromethoxy-benzyl)-2H-pyrazole-3-carboxylic acid]
The Ki of the first is higher: 1.26 to 10 nM for the first, ≤ 1 nM for the second.

First: COc1c(F)cc(Cn2nc(C(=O)N[C@H](Cc3ccccc3Cl)[C@@H](O)C(=O)O)cc2C(=O)O)cc1F [Example 2-34, 5-[(1R,2R)-2-Carboxy-1-(2-chloro-benzyl)-2-hydroxy-ethylcarbamoyl]-2-(3,5-difluoro-4-methoxy-benzyl)-2H-pyrazole-3-carboxylic acid]
Second: COc1ccc(Cn2nc(C(=O)N[C@H](Cc3ccccc3Cl)[C@@H](O)C(=O)O)cc2C(=O)O)cc1F [Example 2-37, 5-[(1R,2R)-2-Carboxy-1-(2-chloro-benzyl)-2-hydroxy-ethylcarbamoyl]-2-(3-fluoro-4-methoxy-benzyl)-2H-pyrazole-3-carboxylic acid]
The Ki of the first is lower: ≤ 1 nM for the first, 1.26 to 10 nM for the second.

For `COc1c(F)c(F)c(Cn2nc(C(=O)N[C@H](Cc3ccccc3Cl)[C@@H](O)C(=O)O)cc2C(=O)O)c(F)c1F` [Example 2-35, 5-[(1R,2R)-2-Carboxy-1-(2-chloro-benzyl)-2-hydroxy-ethylcarbamoyl]-2-(2,3,5,6-tetrafluoro-4-methoxy-benzyl)-2H-pyrazole-3-carboxylic acid], the Ki was ≤ 1 nM.
